According to PMC2613973 (Insect biochemistry and molecular biology, 2008):

Legend:
Test in all cases: Isothermal titration calorimetry
Type in all cases: binding
Moubatin = Moubatin (Ornithodoros moubata, UniProt Q04669)
TSGP2 = biological target: T1, TSGP2 (Ornithodoros kalahariensis, UniProt Q8I9U1)
T1 sequence (Q8I9U1 20-163): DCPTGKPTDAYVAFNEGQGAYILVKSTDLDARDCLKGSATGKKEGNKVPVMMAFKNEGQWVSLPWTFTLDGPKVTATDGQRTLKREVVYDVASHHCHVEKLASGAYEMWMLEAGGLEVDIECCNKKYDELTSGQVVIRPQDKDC

TSGP3 = biological target: T2, TSGP3 (Ornithodoros kalahariensis, UniProt Q8I9U0)
T2 sequence (Q8I9U0 20-163): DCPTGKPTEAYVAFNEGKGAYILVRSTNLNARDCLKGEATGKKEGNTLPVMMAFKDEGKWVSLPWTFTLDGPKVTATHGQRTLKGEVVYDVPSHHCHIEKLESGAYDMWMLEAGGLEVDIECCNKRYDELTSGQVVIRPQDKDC

TSGP2_R85G = TSGP2_R85G (Ornithodoros kalahariensis, UniProt Q8I9U1, R104G)
TSGP3_G85R = TSGP3_G85R (Ornithodoros kalahariensis, UniProt Q8I9U0, G104R)
T2_ML = T2_ML (Ornithodoros kalahariensis, UniProt Q8I9U1, A132G/E131N/E136D/G133S/G134A/L130S/L135D/M127Q/M129Q/V137K)
T2_M4 = T2_M4 (Ornithodoros kalahariensis, UniProt Q8I9U1, K92N/T101K/T85M/T94V)
T2_H95D = T2_H95D (Ornithodoros kalahariensis, UniProt Q8I9U1, H114D)
Moubatin-like 3 = biological target: T3, Moubatin-like 3 (Ornithodoros parkeri, UniProt A6N9T1)
T3 sequence (A6N9T1 20-176): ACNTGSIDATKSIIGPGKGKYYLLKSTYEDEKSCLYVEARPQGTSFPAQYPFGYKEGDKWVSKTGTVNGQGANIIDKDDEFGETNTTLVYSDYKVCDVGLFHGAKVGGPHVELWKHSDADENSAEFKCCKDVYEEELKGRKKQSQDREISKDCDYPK

Compound	Kd (Moubatin) [nM]	Kd (TSGP2) [nM]	Kd (TSGP3) [nM]	Kd (TSGP2_R85G) [nM]	Kd (Moubatin-like 3) [nM]	other results
CCCCC/C=C\C/C=C\C/C=C\C/C=C\CCCC(=O)O [Arachidonic acid, arachidonic acid (AA)]	34 ± 6	69 ± 7	59 ± 24	–	–	–
CCCCC/C=C\C[C@@H](O)/C=C/C=C/C=C\[C@@H](O)CCCC(=O)O [LTB4, leukotriene B4]	16 ± 3	18 ± 3	21 ± 5	10 ± 1.6	–	Kd (TSGP3_G85R): 228 ± 36 nM; Kd (T2_ML): 12 ± 2 nM; Kd (T2_M4): 6 ± 0.8 nM; Kd (T2_H95D): 12 ± 2 nM
NCCc1c[nH]c2ccc(O)cc12 [Serotonin, serotonin (5-hydroxytryptamine, 5-HT)]	–	–	–	–	116 ± 13	–
CCCCC[C@H](O)/C=C/[C@@H]1[C@@H](C/C=C\CCCC(=O)O)[C@H]2CO[C@@H]1C2 [U46619, 9,11-dideoxy-9α,11α-methanoepoxy prostaglandin F2α (stable thromboxane A2 analog)]	20 ± 3	–	9 ± 1	7 ± 1	–	–
NCCc1c[nH]cn1 [Histamine, histamine]	–	–	–	–	106 ± 3	–
CCCCC[C@H](O)/C=C/C1CC2CC(C2)C1C/C=C\CCCC(=O)O (stereo partly drawn) [cTXA2, carbocyclic thromboxane A2]	24 ± 4	–	5 ± 0.7	–	–	–
